Reference: ChEMBL document CHEMBL1201862, “PubChem BioAssay data set” (2004)
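Grown in 96-well plates, cells were treated for 48 hours with each compound at five concentrations. Insufficient inhibition: endpoint recorded as highest concentration tested. GI50 = concentration required for 50% inhibition of growth.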 Calls of active or inactive are those of the source. Rule as the data show it: active = GI50 up to about 1.1 µM and inactive = higher.

Legend:
Test in all cases: inhibition of tumour cell growth, NCI panel, 48 h
OVCAR-5 = tested on: OVCAR-5
SW-620 = tested on: SW-620
SF-539 = tested on: SF-539
RXF 393 = tested on: RXF 393
KM12 = tested on: KM12
NCI-H460 = tested on: NCI-H460
K562 = tested on: K562
NCI-H23 = tested on: NCI-H23
COLO 205 = tested on: COLO 205
SNB-19 = tested on: SNB-19
SF-295 = tested on: SF-295
MOLT-4 = tested on: MOLT-4
HOP-92 = tested on: HOP-92
HCC 2998 = tested on: HCC 2998
U-251 = tested on: U-251
SR = tested on: SR

Measured: GI50

N#C/C(=C\c1c(O)cc(O)cc1O)C(N)=O
inactive: OVCAR-5 > 100 µM | SW-620 > 100 µM | SF-539 > 100 µM | RXF 393 > 100 µM | KM12 > 100 µM | NCI-H460 > 100 µM | K562 > 100 µM | NCI-H23 > 100 µM | COLO 205 > 100 µM | SNB-19 > 100 µM | SF-295 > 100 µM | MOLT-4 > 100 µM | HOP-92 > 100 µM | HCC 2998 > 100 µM | U-251 > 100 µM

Oc1ccccc1/C=C/c1csnn1
inactive: OVCAR-5 > 100 µM | SW-620 > 65.9 µM | SF-539 > 100 µM | RXF 393 > 100 µM | KM12 > 100 µM | NCI-H460 > 69.7 µM | K562 > 100 µM | NCI-H23 > 100 µM | COLO 205 > 100 µM | SR > 46.2 µM | SNB-19 > 100 µM | SF-295 > 100 µM | MOLT-4 > 100 µM | HOP-92 > 100 µM | HCC 2998 > 100 µM | U-251 > 100 µM

COc1ccc([N+]2=NC(c3ccc([N+](=O)[O-])cc3)=NN(c3ccccc3)C2)cc1.[O-][Cl+3]([O-])([O-])[O-]
inactive: OVCAR-5 > 100 µM | SW-620 > 100 µM | RXF 393 67.9 µM | KM12 90.2 µM | NCI-H460 64.6 µM | K562 28.1 µM | NCI-H23 > 100 µM | COLO 205 10 µM | SR 44.2 µM | SNB-19 > 100 µM | SF-295 74.8 µM | MOLT-4 31.8 µM | HCC 2998 > 100 µM | U-251 36.1 µM

CO[C@H](c1ccccc1)[C@H](C)N(C)c1ccc2ccccc2c1C1=NC(C)(C)CO1
inactive: SW-620 15.9 µM | SF-539 16.2 µM | RXF 393 13.8 µM | KM12 17.1 µM | NCI-H460 16 µM | K562 11.7 µM | NCI-H23 14.8 µM | COLO 205 13.8 µM | SR 13.3 µM | SNB-19 24.8 µM | SF-295 15.5 µM | MOLT-4 9.02 µM | HOP-92 15.7 µM | U-251 16 µM

CCOC(=O)c1cnc2cc3cccccc3n2c1=O
inactive: OVCAR-5 > 100 µM | SW-620 > 100 µM | SF-539 > 100 µM | RXF 393 > 100 µM | KM12 60.7 µM | NCI-H460 > 100 µM | K562 > 100 µM | NCI-H23 > 100 µM | COLO 205 > 100 µM | SR 45 µM | SNB-19 > 100 µM | SF-295 > 100 µM | MOLT-4 > 100 µM | HCC 2998 > 100 µM | U-251 > 100 µM

C[N+](C)(C)CC(=O)N/N=C(/Cc1nc2ccc([N+](=O)[O-])cc2nc1O)C(=O)Nc1cc(C(F)(F)F)ccc1Cl
inactive: OVCAR-5 > 100 µM | SW-620 > 100 µM | SF-539 > 100 µM | RXF 393 > 100 µM | KM12 > 100 µM | NCI-H460 > 100 µM | K562 > 100 µM | NCI-H23 > 100 µM | COLO 205 > 100 µM | SR > 100 µM | SNB-19 > 100 µM | SF-295 > 100 µM | MOLT-4 > 100 µM | HOP-92 62.1 µM | HCC 2998 > 100 µM

Cc1c(C(=O)CC(=O)C(=O)Nc2ccc(Cl)c(Cl)c2)[n+]([O-])c2ccccc2[n+]1[O-]
inactive: OVCAR-5 36.4 µM | SW-620 25.1 µM | SF-539 26.9 µM | RXF 393 27.4 µM | KM12 25.1 µM | NCI-H460 24.7 µM | K562 23.8 µM | NCI-H23 28.6 µM | COLO 205 19.4 µM | SNB-19 27 µM | SF-295 41.7 µM | MOLT-4 20.8 µM | HOP-92 27.5 µM | HCC 2998 33 µM | U-251 26.8 µM

Cc1cc(Cl)cc2c1NC(=O)C2(O)CC(=O)c1ccc(Br)cc1 (stereo unspecified)
inactive: OVCAR-5 > 100 µM | SW-620 > 90.6 µM | SF-539 48.3 µM | RXF 393 21.8 µM | KM12 46.9 µM | NCI-H460 55.7 µM | K562 21.6 µM | NCI-H23 43.4 µM | COLO 205 > 100 µM | SNB-19 71 µM | SF-295 46.9 µM | MOLT-4 20.5 µM | HOP-92 94.4 µM | HCC 2998 > 100 µM | U-251 79.4 µM

CCCC(C)C[C@@H](C)CC(C)/C=C(\C)c1oc(=O)c(C)c(O)c1C.CC[C@@H](C)C[C@@H](C)C[C@@H](C)/C=C(\C)c1oc(=O)c(C)c(O)c1C (stereo partly specified)
inactive: OVCAR-5 6.19 µM | SW-620 17.7 µM | SF-539 15.4 µM | RXF 393 13.4 µM | KM12 20.4 µM | NCI-H460 9.29 µM | NCI-H23 10 µM | COLO 205 28.2 µM | SNB-19 14.2 µM | SF-295 12.8 µM | HCC 2998 12.9 µM | U-251 14.5 µM

C/C(CC(=O)Nc1ccccc1C)=N/NS(=O)(=O)c1ccc(C)cc1
inactive: OVCAR-5 > 100 µM | SW-620 > 100 µM | SF-539 > 100 µM | RXF 393 > 100 µM | KM12 > 100 µM | NCI-H460 > 100 µM | K562 > 100 µM | NCI-H23 > 100 µM | COLO 205 > 100 µM | SF-295 > 100 µM | MOLT-4 > 100 µM | HOP-92 > 100 µM | HCC 2998 > 100 µM | U-251 > 100 µM

CCCCCCN(N)C(=O)CC#N
inactive: OVCAR-5 52.2 µM | SW-620 > 100 µM | SF-539 > 100 µM | RXF 393 16.9 µM | KM12 23 µM | NCI-H460 > 100 µM | K562 39.6 µM | NCI-H23 65.6 µM | COLO 205 96.2 µM | SNB-19 > 10 µM | MOLT-4 35.5 µM | HOP-92 53 µM | HCC 2998 > 100 µM | U-251 74.5 µM

C/C(=N/N)c1ccc2[nH]c3c(C)cc([N+](=O)[O-])c(C)c3c2c1
inactive: OVCAR-5 > 10 µM | SW-620 7.53 µM | SF-539 4.76 µM | KM12 > 10 µM | NCI-H460 5.87 µM | K562 2.93 µM | COLO 205 11.5 µM | SR 5.83 µM | SNB-19 14.4 µM | SF-295 17.1 µM | MOLT-4 2.79 µM | HCC 2998 17.5 µM

O=C1CCCC2COc3ccc(O)c1c32 (stereo unspecified)
inactive: OVCAR-5 > 100 µM | SF-539 > 100 µM | RXF 393 > 100 µM | KM12 > 100 µM | NCI-H460 > 100 µM | K562 > 100 µM | NCI-H23 > 100 µM | COLO 205 > 100 µM | SR > 100 µM | SNB-19 > 100 µM | SF-295 > 100 µM | MOLT-4 > 100 µM | HOP-92 > 100 µM | HCC 2998 > 100 µM | U-251 > 100 µM

Cc1cc(O)c2c3c1C(=O)Oc1c(CO)c(O)c(C(=O)O)c(c1O3)C=NN=Cc1c3c(c(CO)c(O)c1C(=O)O)OC(=O)c1c(C)cc(O)c(c1O3)C=NN=C2
inactive: OVCAR-5 > 100 µM | SW-620 > 100 µM | SF-539 > 100 µM | RXF 393 > 100 µM | KM12 48.6 µM | NCI-H460 > 100 µM | NCI-H23 > 100 µM | COLO 205 > 100 µM | SNB-19 > 100 µM | SF-295 > 100 µM | HOP-92 > 100 µM | HCC 2998 > 100 µM | U-251 > 100 µM

O=C1CCC2(CC1)SCCCS2
inactive: OVCAR-5 > 100 µM | SW-620 > 100 µM | RXF 393 > 100 µM | KM12 > 100 µM | NCI-H460 > 100 µM | K562 > 100 µM | NCI-H23 > 100 µM | COLO 205 > 100 µM | SNB-19 > 100 µM | SF-295 > 100 µM | HOP-92 > 100 µM | HCC 2998 > 100 µM | U-251 > 100 µM

Cc1no[n+]([O-])c1/C=N/NS(=O)(=O)c1ccccc1
inactive: OVCAR-5 > 100 µM | SW-620 > 100 µM | SF-539 > 100 µM | RXF 393 > 100 µM | KM12 > 100 µM | K562 > 100 µM | NCI-H23 > 100 µM | COLO 205 > 100 µM | SR > 100 µM | SNB-19 > 100 µM | MOLT-4 > 100 µM | HOP-92 > 100 µM | HCC 2998 > 100 µM | U-251 > 100 µM

O/N=C1/C(=C/c2ccc(Cl)c(Cl)c2)CCCC1C(NO)c1ccc(Cl)c(Cl)c1 (stereo unspecified)
inactive: SW-620 17.9 µM | SF-539 18.1 µM | RXF 393 19.7 µM | KM12 18 µM | NCI-H460 21.1 µM | K562 21.3 µM | NCI-H23 17.3 µM | COLO 205 18.3 µM | SNB-19 17.6 µM | MOLT-4 12.5 µM | HCC 2998 17.1 µM | U-251 17.9 µM

Cc1cc(Cl)ccc1NC(=O)/C(=N\NC(C)(C)C)C(C#N)c1nc(-c2ccc([N+](=O)[O-])cc2)cs1 (stereo unspecified)
inactive: OVCAR-5 > 100 µM | SW-620 > 100 µM | SF-539 > 100 µM | KM12 > 100 µM | NCI-H460 > 100 µM | K562 > 100 µM | NCI-H23 > 100 µM | SR > 100 µM | SNB-19 > 100 µM | SF-295 > 100 µM | MOLT-4 5.79 µM | HOP-92 > 100 µM | HCC 2998 > 100 µM | U-251 > 100 µM

Cn1ccnc1CCc1c(Cl)cccc1Cl
inactive: OVCAR-5 > 100 µM | SW-620 > 100 µM | SF-539 > 100 µM | RXF 393 > 100 µM | KM12 > 100 µM | NCI-H460 > 100 µM | K562 > 100 µM | NCI-H23 > 100 µM | COLO 205 > 100 µM | SR > 100 µM | SF-295 > 100 µM | MOLT-4 > 100 µM | HOP-92 52.1 µM | U-251 > 100 µM
